Data set [1] can be described thus: Tissue distribution of AITC metabolites after oral AITC (HPLC). To be noted: rat liver, kidney, spleen, heart, lung; 0.5-8 h after oral AITC.
Experimental: (§5) Male Sprague-Dawley rats with an average weight of approximately 250 g were purchased from Orient Bio Inc. (Seoul, South Korea) and acclimatized to the laboratory conditions (12:12 h light-dark cycle, temperature of 24°C, and humidity of 55%) for 1 week. Animals were provided the American Institute of Nutrition-93 (AIN-93) diet and water ad libitum during acclimation. On the dosing day, rats were fasted for 6 h and then administered AITC (25 mg/kg of body weight) as a suspension (1 mL) in polyethylene glycol using an oral zonde needle. After a single-dose oral administration of AITC, rats were sacrificed under anesthesia (80 mg/kg ketamine + 8 mg/kg xylazine) at different time points after dosing. Blood samples were collected from the abdominal aorta in heparinized syringes. Samples were immediately centrifuged at 3,000 × g for 10 min and the resulting plasma samples were kept frozen at -80°C until analysis. The liver, heart, spleen, kidney, and lung were rapidly collected from each animal at different time points, individually wrapped in aluminum foil, snap-frozen in liquid nitrogen, and stored frozen at -80°C until use.
(§6) Dissected tissue was thawed, rinsed with ice-cold saline, blotted dry, and weighed. Each tissue sample (100 mg) was homogenized in 100 μL phosphate-buffered saline (PBS) using homogenizer (MP Fastprep instrument, MP Biomedical, Solon, OH, USA). The homogenates were transferred into clean tubes and mixed with 700 μL of methanol by vortexing for 5 min. Homogenates were centrifuged at 15,700 × g for 15 min at 4°C, and the supernatants were collected and evaporated to dryness at room temperature under a stream of nitrogen gas. The residue was diluted with 100 μL 70% methanol.
(§7) HPLC analysis was performed using a Jasco HPLC system equipped with a Jasco UV-2089 plus quaternary gradient pump, a Jasco MD-2010 plus multiple-wave-length detector, and Borwin chromatography software, version 1.5 (Jasco Inc., Easton, MD, USA). Separation was achieved using an XTerra RP18 column (4.6 × 250mm, 5 μM, Waters, Milford, MA, USA). […]
Another data set deals with 3T3-L1 preadipocytes. Description: MDI-induced adipocyte differentiation of 3T3-L1 preadipocytes, Oil Red O staining. The data set is classed as cell-based. Conditions: treated days 0 to 2, stained after 8 days. As for the experimental part: (§1) 3T3-L1 pre-adipocyte cells were purchased from the ATCC (Manassas, VA, USA). Cells were maintained in DMEM supplemented with 10% calf serum (CS), 100 U/mL penicillin and 100 μg/mL streptomycin at 37°C in a 5% CO2 incubator. The cells were seeded onto a 6-well plate at a density of 4 × 10^5 cells per well, and cell differentiation was induced. In brief, beginning at 2 days post-confluence (day 0), cells were incubated for 2 days in DMEM containing 0.5 mM 3-isobutyl-1-methylxanthine (IBMX), 1 μM dexamethasone, 1 μg/mL of insulin, and 10% fetal bovine serum (FBS). After induction, the medium was replaced with DMEM containing 10% FBS and 1 μg/mL of insulin, and the cells were incubated for 2 more days, after which the cells were maintained in DMEM containing 10% FBS until they reached maturity. From days 0 to 2, the cells were exposed to the AITC metabolites.
(§2) Oil Red O staining was performed on day 8. Prior to quantification, the cells were fixed in 10% neutral formalin for 1 h at room temperature, washed with PBS, and stained for 1 h with 0.5% Oil Red O in 60% isopropanol. After staining, the cells were washed with distilled water and observed under a fluorescence microscope. […] The optical density was measured at a wavelength of 490 nm using microplate reader (Tecan Infinite 200 PRO, Männedorf, Switzerland).

Data set [2] is described as follows: Plasma pharmacokinetics of AITC metabolites after oral administration of AITC (HPLC). The data set is classed as in vivo. To be noted: male, Sprague-Dawley, rat plasma, metabolite after oral AITC 25 mg/kg, n = 5; for Cmax: read-out: Cmax (maximum plasma concentration); for half-life: read-out: T1/2 (elimination half-life) (converted); for AUC(0-t): unit printed in text b47 only, read-out: AUC (0-8h). As for the experimental part:
Methanol (700 μL) was added to 300 μL of serum and the mixture was mixed by vortexing for 5 min. […] The internal standards (synthesized metabolites) were added to the plasma samples for validation.
(§3) Non-compartmental (mode-independent) nutrikinetic parameters were derived using PK Solutions software version 2.0 (Summit Research Services, Montrose, CO, USA). The maximum plasma concentration (Cmax), time to maximum plasma concentration (Tmax), and the elimination half-life (t1/2) were estimated from the plasma concentration-time curve. The area under the curve (AUC) for the plasma concentration over time was calculated using the trapezoidal rule.
A validated analytical method was employed to study the pharmacokinetic profiles of AITC metabolites after oral administration of 25 mg/kg AITC dose to rats. The mean plasma concentration-time curves of the AITC metabolites and the corresponding pharmacokinetic parameters are shown in Fig 2B and 2C . The pharmacokinetic analysis was performed with PK solution 2.0 software, using a non-compartmental model for data analysis. After oral administration of AITC, GSH-AITC and NAC-AITC were detected in the plasma. The Tmax values for GSH-AITC and NAC-AITC were similar at 0.5h. […] The areas under the curve of the concentration-time profile (AUC0-8h) of GSH-AITC and NAC-AITC were 1.3 and 12.33 μg·h/mL, respectively.

For a further data set, the system named is PPAR-γ, C/EBPα, and FAS. Kind of data set: Western blotting of adipogenesis proteins in 3T3-L1 cells. The format is cell-based. The protocol:
as §1
(§4) 3T3-L1 adipocytes were scraped into a lysis buffer containing 40 mM HEPES (pH 7.4), 120 mM NaCl, 1 mM EDTA, 50 mM NaF, 1.5 mM Na3VO4, 10 mM β–glycerophosphate, and 1% Triton X-100, supplemented with EDTA-free phosphatase and a protease inhibitor cocktail (#78441; Thermo Scientific, Waltham, MA, USA). Next, the cells were lysed by sonication twice for 15 sec on ice using a sonicator (Misonix, Farmingdale, NY, USA). […]

For a further data set, the system named is Hepa 1–6 cells. Description: Oleic acid-induced lipid accumulation in hepatocytes, Oil Red O. The data set is classed as cell-based, mouse. Conditions: hepatocytes (Hepa 1–6), 100 μM oleic acid, 24h. The protocol: HepG2 (human hepatoma cell line) and Hepa 1–6 (mouse hepatoma cell line) cells were obtained from ATCC (Manassas, VA, USA) and grown in high glucose DMEM supplemented with 10% FBS, 100 U/mL penicillin, and 100 μg/mL streptomycin. For examination of lipid accumulation in hepatocytes, the cells were treated with AITC metabolites in presence of 100 μM oleic acid for 24h.
as §2
Fig 6 Inhibitory effects of GSH-AITC and NAC-AITC on oleic acid-induced lipid accumulation. […] The intracellular triglyceride levels were indexed by quantifying the Oil Red O extracted from the cells by spectroscopy performed at an […] of 490 nm (B). The SCD1, FAS, and AMPK levels in cell lysates were detected by western blot analysis. To compare and quantify levels of proteins, the density of each band was measured using ImageJ software with β–actin as an internal reference (C). […]

Data set [3] is described as follows: Urine concentration and pharmacokinetics of AITC metabolites after oral AITC (HPLC). The format is in vivo. To be noted: rat urine; for Detection in urine samples: HPLC. As for the experimental part: as §3
In addition to our evaluations of plasma levels, we also determined the concentration of AITC metabolites in urine using HPLC. […] NAC-AITC was mostly excreted within 8 h (Fig 3C).

A further data set relates to mTORC1. Kind of data set: mTORC1 activity (S6K1 and 4EBP1 phosphorylation) during 3T3-L1 adipocyte differentiation, western blot. The format is cell-based. As for the experimental part:
as §1, §4

The conditions of data set [4]: rat, in vivo, po.
Experimental: as §5, §6, §7
On the set-up of data set [5]: method as in PMID 3961819. Conditions: cellular medium; cited from earlier work.
Setting [6] is: male, Sprague-Dawley, 25 mg/kg, n = 5.

On to `C=CCNC(=S)SC[C@H](NC(C)=O)C(=O)O` [NAC-AITC, N-acetyl-S-(N-allylthiocarbamoyl)- l-cysteine], for which, in [1], the “Tissue deposition (by tissue weight)” value is “observed in the kidney”. Further, the “Differentiation of 3T3-L1 preadipocytes (Oil Red O)” value in the data set with 3T3-L1 preadipocytes is reported as “inhibited differentiation of preadipocytes”. Further, in data set [2], the Tmax came out at 0.5 h, the Cmax was determined as 14000 ng/mL, the half-life was 2.65 h and the AUC(0-t) is 12300 ng·h/mL. The “Levels of PPAR-γ, C/EBPα, and FAS” value in the data set on PPAR-γ, C/EBPα, and FAS was “reduced”. Besides, in the data set on Hepa 1–6 cells, the “Oleic acid-induced lipid accumulation” value is “suppressed”. Further, in data set [3] (setting [6]), the Cmax came out at 2260 ng/mL and the Tmax is 2.66 h. Moreover, the AUC(0-t) in [3] (male, Sprague-Dawley, 25 mg/kg, n = 5, read-out: AUC (0-8h) in urine) turned out to be 8110 ng·h/mL. Further, the half-life in data set [3] (male, Sprague-Dawley, 25 mg/kg, n = 5, read-out: T1/2 in urine (converted)) is 1.44 h. In addition, in [3], the “Time within which mostly excreted in urine” value was not above 8 h and the “Detection in urine samples” value was “successfully quantified”. Besides, the “S6K1 phosphorylation on Thr389” value with mTORC1 is “reduced”.

For `C=CCN=C=S` [AITC, Allyl-isothiocyanate], the “Detection of parent molecule in plasma and tissues” value in data set [4] is “not detected”.

As to `C=CCNC(=S)SC[C@H](NC(=O)CC[C@H](N)C(=O)O)C(=O)NCC(=O)O` [GSH-AITC, S-(N-allylthiocarbamoyl)-L-glutathione], in [1], the “Tissue deposition (by tissue weight)” value was “observed in the liver, followed by the kidney, spleen, heart, and lung”. Moreover, the “Fraction converted to free AITC” value in data set [5] is reported as 9–15%. The “Differentiation of 3T3-L1 preadipocytes (Oil Red O)” value with 3T3-L1 preadipocytes is reported as “inhibited differentiation of preadipocytes”. In [2], the Tmax came to 0.5 h, the Cmax came to 1470 ng/mL, the half-life was 0.92 h and the AUC(0-t) was 1300 ng·h/mL. Also, the “Levels of PPAR-γ, C/EBPα, and FAS” value in the data set on PPAR-γ, C/EBPα, and FAS was “reduced”. In the data set with Hepa 1–6 cells, the “Oleic acid-induced lipid accumulation” value is recorded as “suppressed”. Also, the “Detection in urine samples” value in data set [3] is listed as “not detected”. Also, the “S6K1 phosphorylation on Thr389” value in the data set with mTORC1 is recorded as “reduced”.

The values are drawn from paper PMC4552636, “Pharmacokinetics, Tissue Distribution, and Anti-Lipogenic/Adipogenic Effects of Allyl-Isothiocyanate Metabolites” (PLoS ONE, 2015).
